Reference: BigSolDB 2.1

Oc1ccc(OCc2ccccc2)cc1
solubility (mole fraction)
Settings | 283.15 K | 288.15 K | 293.15 K | 298.15 K | 303.15 K | 308.15 K | 313.15 K | 318.15 K | 323.15 K | 328.15 K
in ethanol | 0.0483 | 0.056 | 0.0644 | 0.0737 | 0.0846 | 0.0956 | 0.109 | 0.123 | 0.137 | 0.155
in ethylene glycol | 0.0053 | 0.00664 | 0.00822 | 0.0101 | 0.0125 | 0.0149 | 0.018 | 0.0216 | 0.0257 | 0.0302
in isopropanol | 0.0217 | 0.0261 | 0.0308 | 0.0365 | 0.0425 | 0.0503 | 0.0583 | 0.0671 | 0.0778 | 0.0896
in n-propanol | 0.0381 | 0.0446 | 0.052 | 0.0605 | 0.0702 | 0.0804 | 0.0931 | 0.106 | 0.12 | 0.137
in water | 3.57e-06 | 4.49e-06 | 5.64e-06 | 7.04e-06 | 8.71e-06 | 1.07e-05 | 1.3e-05 | 1.57e-05 | 1.91e-05 | 2.29e-05
